Columns and labels:
sugar beet = assay: Test B pre/postemergence sugar beet; type: in vivo, Beta vulgaris
How it was run: (§1)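 Test chemicals in a non-phytotoxic solvent mixture with surfactant were sprayed preemergence onto planted seeds and postemergence onto plants 2 to 18 cm tall (1- to 4-leaf stage). After twelve to sixteen days in a greenhouse, injury was visually rated against untreated controls from 0 (no effect) to 10 (complete control).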

morningglory = assay: Test B pre/postemergence morningglory; type: in vivo, Ipomoea hederacea
How it was run: as §1

surinam grass = assay: Test B pre/postemergence surinam grass; type: in vivo, Brachiaria decumbens
How it was run: as §1

bamyardgrass = assay: Test B flood test barnyardgrass; type: in vivo, Echinochloa crus-galli
How it was run: (§2)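 Each value is a visual injury score relative to controls, with 10 meaning complete control and 0 no effect. Evaluation took place twelve to sixteen days after the 2-leaf-stage plants were treated and kept in the greenhouse.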

blackgrass = assay: Test B pre/postemergence blackgrass; type: in vivo, Alopecurus myosuroides
How it was run: as §1

bedstraw = assay: Test B pre/postemergence bedstraw; type: in vivo, Galium aparine; conditions: for Bedstraw plant response rating: Postemergence; for Plant response rating, Bedstraw: Preemergence
How it was run: as §1

rape = assay: Test B pre/postemergence rape; type: in vivo, Brassica napus
How it was run: as §1

pigweed = assay: Test B pre/postemergence pigweed; type: in vivo, Amaranthus retroflexus
How it was run: as §1

purple nutsedge = assay: Test B pre/postemergence purple nutsedge; type: in vivo, Cyperus rotundus
How it was run: as §1

giant foxtail = assay: Test B pre/postemergence giant foxtail; type: in vivo, Setaria faberii
How it was run: as §1

smallflower flatsedge = assay: Test B flood test smallflower flatsedge; type: in vivo, Cyperus difformis
How it was run: as §2

cocklebur = assay: Test B pre/postemergence cocklebur; type: in vivo, Xanthium strumarium
How it was run: as §1

duck salad = assay: Test B flood test duck salad; type: in vivo, Heteranthera limosa
How it was run: as §2

wild oat = assay: Test B pre/postemergence wild oat; type: in vivo, Avena fatua
How it was run: as §1

soybean = assay: Test B pre/postemergence soybean; type: in vivo, Glycine max
How it was run: as §1

wheat = assay: Test B pre/postemergence wheat; type: in vivo, Triticum aestivum
How it was run: as §1

[1] = Postemergence, Rate 62 g/ha, scale 0 to 10, 0 is no effect, 10 is complete control
[2] = Postemergence, Rate 250 g/ha, scale 0 to 10, 0 no effect, 10 complete control
[3] = Preemergence, Rate 62 g/ha, scale 0 to 10, 0 is no effect, 10 is complete control
[4] = Preemergence, Rate 125 g/ha, scale 0 to 10 (0 no effect, 10 complete control)
[5] = Preemergence, Rate 250 g/ha, scale of 0 to 10 where 0 is no effect and 10 is complete control
[6] = Preemergence, Rate 500 g/ha, scale 0 (no effect) to 10 (complete control)
[7] = Rate 125 g/ha, Postemergence, scale 0 to 10, 0 no effect, 10 complete control
[8] = Rate 500 g/ha, Postemergence, 0 to 10 scale (0 no effect, 10 complete control)
[9] = Rate 125 g/ha, Postemergence section (flood test species), scale 0 to 10, 0 no effect, 10 complete control
[10] = Rate 500 g/ha, Postemergence section of Table B, 0 to 10 scale (0 no effect, 10 complete control)
[11] = flood test, listed under Postemergence, Rate 250 g/ha, scale 0 to 10, 0 no effect, 10 complete control
[12] = Rate 62 g/ha, scale 0 to 10, 0 is no effect, 10 is complete control

## Cc1c(Cl)cccc1-n1c(=O)on(C(=O)N(c2ccc(F)cc2)C(C)C)c1=O [Compound 21]
Sugar beet; [1]
  Sugarbeets plant response rating: 0
Sugar beet; [2]
  Sugarbeets plant response rating: 0
Sugar beet; [3]
  Plant response rating, Sugarbeets: 0
Sugar beet; [4]
  Plant response rating, Sugarbeets: 0
Sugar beet; [5]
  Plant response rating, Sugarbeets: 3
Sugar beet; [6]
  Sugarbeets plant response rating: 8
Sugar beet; [7]
  Sugarbeets plant response rating: 0
morningglory; [1]
  Morningglory plant response rating: 2
morningglory; [2]
  Morningglory plant response rating: 2
morningglory; [3]
  Plant response rating, Morningglory: 0
morningglory; [4]
  Plant response rating, Morningglory: 0
morningglory; [5]
  Plant response rating, Morningglory: 2
morningglory; [6]
  Morningglory plant response rating: 2
morningglory; [7]
  Morningglory plant response rating: 2
morningglory; [8]
  Morningglory plant response rating: 8
Surinam grass; [1]
  B. signalgrass plant response rating: 0
Surinam grass; [2]
  B. signalgrass plant response rating: 0
Surinam grass; [3]
  Plant response rating, B. signalgrass: 0
Surinam grass; [4]
  Plant response rating, B. signalgrass: 0
Surinam grass; [5]
  Plant response rating, B. signalgrass: 0
Surinam grass; [6]
  B. signalgrass plant response rating: 0
Surinam grass; [7]
  B. signalgrass plant response rating: 0
Surinam grass; [8]
  B. signalgrass plant response rating: 0
bamyardgrass; [1]
  Barnyardgrass plant response rating: 0
bamyardgrass; [9]
  Barnyardgrass plant response rating: 0
bamyardgrass; [10]
  Barnyardgrass plant response rating: 0
bamyardgrass; [11]
  Barnyardgrass plant response rating: 0
blackgrass; [1]
  Blackgrass plant response rating: 0
blackgrass; [2]
  Blackgrass plant response rating: 0
blackgrass; [3]
  Plant response rating, Blackgrass: 0
blackgrass; [4]
  Plant response rating, Blackgrass: 0
blackgrass; [5]
  Plant response rating, Blackgrass: 0
blackgrass; [6]
  Blackgrass plant response rating: 0
blackgrass; [7]
  Blackgrass plant response rating: 0
blackgrass; [8]
  Blackgrass plant response rating: 0
bedstraw; [12]
  Bedstraw plant response rating: 0
  Plant response rating, Bedstraw: 0
bedstraw; Rate 250 g/ha, scale 0 to 10, 0 no effect, 10 complete control
  Bedstraw plant response rating: 0
bedstraw; Rate 125 g/ha, scale 0 to 10 (0 no effect, 10 complete control)
  Plant response rating, Bedstraw: 0
bedstraw; Rate 250 g/ha, scale of 0 to 10 where 0 is no effect and 10 is complete control
  Plant response rating, Bedstraw: 0
bedstraw; Rate 125 g/ha, scale 0 to 10, 0 no effect, 10 complete control
  Bedstraw plant response rating: 0
bedstraw; Rate 500 g/ha, 0 to 10 scale (0 no effect, 10 complete control)
  Bedstraw plant response rating: 6
rape; [1]
  Rape plant response rating: 0
rape; [2]
  Rape plant response rating: 0
rape; [3]
  Plant response rating, Rape: 0
rape; [4]
  Plant response rating, Rape: 0
rape; [5]
  Plant response rating, Rape: 0
rape; [6]
  Rape plant response rating: 0
rape; [7]
  Rape plant response rating: 0
rape; [8]
  Rape plant response rating: 0
pigweed; [1]
  Redroot pigweed plant response rating: 0
pigweed; [2]
  Redroot pigweed plant response rating: 0
pigweed; [3]
  Plant response rating, Redroot pigweed: 6
pigweed; [4]
  Plant response rating, Redroot pigweed: 6
pigweed; [5]
  Plant response rating, Redroot pigweed: 6
pigweed; [6]
  Redroot pigweed plant response rating: 8
pigweed; [7]
  Redroot pigweed plant response rating: 0
pigweed; [8]
  Redroot pigweed plant response rating: 0
Purple nutsedge; [1]
  Nutsedge plant response rating: 0
Purple nutsedge; [2]
  Nutsedge plant response rating: 0
Purple nutsedge; [3]
  Plant response rating, Nutsedge: 0
Purple nutsedge; [4]
  Plant response rating, Nutsedge: 0
Purple nutsedge; [5]
  Plant response rating, Nutsedge: 0
Purple nutsedge; [6]
  Nutsedge plant response rating: 0
Purple nutsedge; [7]
  Nutsedge plant response rating: 0
Purple nutsedge; [8]
  Nutsedge plant response rating: 0
Giant foxtail; [1]
  Giant foxtail plant response rating: 0
Giant foxtail; [2]
  Giant foxtail plant response rating: 0
Giant foxtail; [3]
  Plant response rating, Giant foxtail: 8
Giant foxtail; [4]
  Plant response rating, Giant foxtail: 8
Giant foxtail; [5]
  Plant response rating, Giant foxtail: 8
Giant foxtail; [6]
  Giant foxtail plant response rating: 9
Giant foxtail; [7]
  Giant foxtail plant response rating: 0
Giant foxtail; [8]
  Giant foxtail plant response rating: 2
Smallflower flatsedge; [1]
  S. Flatsedge plant response rating: 0
Smallflower flatsedge; [9]
  S. Flatsedge plant response rating: 0
Smallflower flatsedge; [11]
  S. Flatsedge plant response rating: 0
cocklebur; [1]
  Cocklebur plant response rating: 0
cocklebur; [2]
  Cocklebur plant response rating: 5
cocklebur; [3]
  Plant response rating, Cocklebur: 0
cocklebur; [4]
  Plant response rating, Cocklebur: 0
cocklebur; [5]
  Plant response rating, Cocklebur: 0
cocklebur; [6]
  Cocklebur plant response rating: 0
cocklebur; [7]
  Cocklebur plant response rating: 0
cocklebur; [8]
  Cocklebur plant response rating: 7
Duck salad; [1]
  Ducksalad plant response rating: 0
Duck salad; [9]
  Ducksalad plant response rating: 0
Duck salad; [10]
  Ducksalad plant response rating: 0
Duck salad; [11]
  Ducksalad plant response rating: 0
Wild oat; [1]
  Wild oats plant response rating: 0
Wild oat; [2]
  Wild oats plant response rating: 0
Wild oat; [4]
  Plant response rating, Wild oats: 0
Wild oat; [5]
  Plant response rating, Wild oats: 0
Wild oat; [6]
  Wild oats plant response rating: 0
Wild oat; [7]
  Wild oats plant response rating: 0
soybean; [1]
  Soybean plant response rating: 2
soybean; [2]
  Soybean plant response rating: 2
soybean; [3]
  Plant response rating, Soybean: 0
soybean; [4]
  Plant response rating, Soybean: 0
soybean; [5]
  Plant response rating, Soybean: 0
soybean; [6]
  Soybean plant response rating: 0
soybean; [7]
  Soybean plant response rating: 2
wheat; [1]
  Wheat plant response rating: 0
wheat; [2]
  Wheat plant response rating: 0
wheat; [3]
  Plant response rating, Wheat: 0
wheat; [4]
  Plant response rating, Wheat: 0
wheat; [5]
  Plant response rating, Wheat: 0
wheat; [6]
  Wheat plant response rating: 0
wheat; [7]
  Wheat plant response rating: 0

Reference: patent publication US6737383B1, “Herbicidal oxadiazolidines” (priority 1999, dated 2004)
